From patent publication US9533952B2, “N-prop-2-ynyl carboxamide derivatives and their use as TRPA1 antagonists” (Orion Corporation, priority 2012, dated 2017) come the findings set out here.

As usually defined, the IC50 is the concentration at which inhibition is half-maximal. A low value points to inhibition by little substance.

Chain of TRPA1 (O75762 whole entry): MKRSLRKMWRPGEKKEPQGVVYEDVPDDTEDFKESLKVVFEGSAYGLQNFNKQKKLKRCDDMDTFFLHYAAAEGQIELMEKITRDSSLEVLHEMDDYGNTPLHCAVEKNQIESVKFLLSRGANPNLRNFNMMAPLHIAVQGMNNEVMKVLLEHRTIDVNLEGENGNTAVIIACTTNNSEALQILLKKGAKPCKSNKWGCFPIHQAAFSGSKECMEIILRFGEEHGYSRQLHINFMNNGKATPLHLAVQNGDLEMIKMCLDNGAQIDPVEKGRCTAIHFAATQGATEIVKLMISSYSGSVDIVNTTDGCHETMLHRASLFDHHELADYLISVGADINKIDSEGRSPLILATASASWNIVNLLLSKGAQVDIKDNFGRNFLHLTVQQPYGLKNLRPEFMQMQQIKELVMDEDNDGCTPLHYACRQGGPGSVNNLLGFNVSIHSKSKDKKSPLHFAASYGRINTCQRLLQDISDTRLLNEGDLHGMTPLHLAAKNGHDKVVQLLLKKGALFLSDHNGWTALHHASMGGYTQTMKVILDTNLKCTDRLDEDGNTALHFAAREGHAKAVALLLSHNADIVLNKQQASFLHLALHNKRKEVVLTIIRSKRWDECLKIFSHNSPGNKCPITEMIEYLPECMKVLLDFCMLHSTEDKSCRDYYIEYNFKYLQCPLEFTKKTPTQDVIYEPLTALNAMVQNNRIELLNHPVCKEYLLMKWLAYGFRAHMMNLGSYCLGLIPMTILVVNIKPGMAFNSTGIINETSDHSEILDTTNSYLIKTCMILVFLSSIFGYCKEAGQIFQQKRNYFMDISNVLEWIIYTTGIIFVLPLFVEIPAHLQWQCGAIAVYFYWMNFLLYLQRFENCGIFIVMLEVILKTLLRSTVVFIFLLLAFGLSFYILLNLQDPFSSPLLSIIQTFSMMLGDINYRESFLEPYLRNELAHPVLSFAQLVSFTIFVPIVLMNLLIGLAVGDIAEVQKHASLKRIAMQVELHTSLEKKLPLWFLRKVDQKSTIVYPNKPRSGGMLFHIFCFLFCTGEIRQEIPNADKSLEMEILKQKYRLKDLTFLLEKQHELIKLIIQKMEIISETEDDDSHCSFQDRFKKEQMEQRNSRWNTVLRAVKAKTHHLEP

The test has as its target TRPA1 (Homo sapiens, UniProt O75762). Kind of test: Determination of TRPA1 activity in vitro (TRPA1 antagonism in vitro). Type of test: cell-based. Conditions: procedure of Wei et al., Anesthesiology 111 (2009) 147-154.
The compound `C#CC(C)(C)NC(=O)c1cc(F)c(F)cc1NCCC` [Example 63, 4,5-Difluoro-N-(2-methylbut-3-yn-2-yl)-2-(propylamino)benzamide] yielded an IC50 of 3.1 µM.

`C#CC(C)(C)NC(=O)c1ccccc1NCCCC` [Example 64, 2-(Butylamino)-N-(2-methylbut-3-yn-2-yl)benzamide] came in with an IC50 of 1.5 µM.

`C#CC(C)(C)NC(=O)c1cc(F)c(F)cc1NCC` [Example 65, 2-(Ethylamino)-4,5-difluoro-N-(2-methylbut-3-yn-2-yl)benzamide] showed an IC50 of 4.9 µM.

With `C#CC(C)(C)NC(=O)c1cc(F)c(F)cc1NCCC(F)(F)F` [Example 66, 4,5-Difluoro-N-(2-methylbut-3-yn-2-yl)-2-(3,3,3-trifluoropropylamino)-benzamide], the IC50 was found to be 0.9 µM.

For `C#CC(C)(C)NC(=O)c1cc(F)c(F)cc1NC(C)C` [Example 67, 4,5-Difluoro-2-(isopropylamino)-N-(2-methylbut-3-yn-2-yl)benzamide], inhibition was half-maximal at 5.5 µM (IC50).

On to `C#CC(C)(CC(C)C)NC(=O)c1cc(F)c(F)cc1NCC(C)C` (centres unmarked) [Example 68, N-(3,5-Dimethylhex-1-yn-3-yl)-4,5-difluoro-2-(isobutylamino)-benzamide], for which the IC50 is 1.1 µM.

In turn, `C#CC(C)(NC(=O)c1cc(F)c(F)cc1NCC(C)C)C(C)C` (centres unmarked) [Example 69, N-(3,4-Dimethylpent-1-yn-3-yl)-4,5-difluoro-2-(isobutylamino)-benzamide] returned a half-inhibitory concentration (IC50) of 0.3 µM.

With `C#CC(C)(CCC)NC(=O)c1cc(F)c(F)cc1NCC(C)C` (centres unmarked) [Example 70, 4,5-Difluoro-2-(isobutylamino)-N-(3-methylhex-1-yn-3-yl)benzamide], the concentration for half-maximal inhibition (IC50) was determined as 0.7 µM.

Consider `C#CC(C)(C)NC(=O)c1ccc(F)cc1NCCC(F)(F)F` [Example 71, 4-Fluoro-N-(2-methylbut-3-yn-2-yl)-2-(3,3,3-trifluoropropylamino) benzamide], for which inhibition was half-maximal at 0.7 µM (IC50).

The compound `C#CC(C)(C)NC(=O)c1ccc(C(F)(F)F)cc1NCCC(F)(F)F` [Example 72, N-(2-methylbut-3-yn-2-yl)-4-(trifluoromethyl)-2-(3,3,3-trifluoropropyl-amino)benzamide] came in with an IC50 of 0.5 µM.

For the compound `C#CC(C)(C)NC(=O)c1ccc(OC)cc1NCCC(F)(F)F` [Example 73, 4-Methoxy-N-(2-methylbut-3-yn-2-yl)-2-(3,3,3-trifluoropropylamino)-benzamide], the IC50 worked out at 2.2 µM.

`C#CC(C)(C)NC(=O)c1ccc(OC)cc1NCCC` [Example 74, 4-Methoxy-N-(2-methylbut-3-yn-2-yl)-2-(propylamino)benzamide]: the IC50 stood at 7 µM.

`C#CC(C)(C)NC(=O)c1cc(OC(F)(F)F)ccc1NCCC(F)(F)F` [Example 75, N-(2-Methylbut-3-yn-2-yl)-5-(trifluoromethoxy)-2-(3,3,3-trifluoropropylamino)benzamide] had a half-maximal inhibitory concentration (IC50) of 0.7 µM.

`C#CC(C)(C)NC(=O)c1cc(OC)ccc1NCCC(F)(F)F` [Example 76, 5-Methoxy-N-(2-methylbut-3-yn-2-yl)-2-(3,3,3-trifluoropropyl-amino)benzamide]: the IC50 amounted to 4.7 µM.

`C#CC(C)(C)NC(=O)c1cc(C)ccc1NCCC(F)(F)F` [Example 77, 5-Methyl-N-(2-methylbut-3-yn-2-yl)-2-(3,3,3-trifluoropropylamino)-benzamide]: the IC50 amounted to 0.9 µM.

In the case of `C#CC(C)(C)NC(=O)c1cc(SC)ccc1NCCC(F)(F)F` [Example 78, N-(2-Methylbut-3-yn-2-yl)-5-(methylthio)-2-(3,3,3-trifluoropropyl-amino)benzamide], half-maximal inhibition (IC50) required 0.8 µM.

The compound `C#CC(C)(C)NC(=O)c1ccccc1NCCC(F)(F)F` [Example 79, N-(2-Methylbut-3-yn-2-yl)-2-(3,3,3-trifluoropropylamino)benzamide] showed a 50% inhibitory concentration (IC50) of 1.8 µM.

As for `C#CC(C)(C)NC(=O)c1ccccc1NCC(C)C` [Example 80, 2-(Isobutylamino)-N-(2-methylbut-3-yn-2-yl)benzamide], inhibition was half-maximal at 1.3 µM (IC50).

As to `C#CC(C)(C)NC(=O)c1ccccc1NCC(C)(C)C` [Example 81, N-(2-Methylbut-3-yn-2-yl)-2-(neopentylamino)benzamide], it took 1.3 µM to reach half-maximal inhibition (IC50).

`C#CC(C)(C)NC(=O)c1cc(F)c(F)cc1NC(C)(C)C` [Example 82, 2-(tert-Butylamino)-4,5-difluoro-N-(2-methylbut-3-yn-2-yl)benzamide] gave an IC50 of 5.4 µM.

As for `C#CC(C)(C)NC(=O)c1ccc(F)cc1NC(C)C` [Example 83, 4-Fluoro-2-(isopropylamino)-N-(2-methylbut-3-yn-2-yl)benzamide], half-maximal inhibition (IC50) was put at 2.9 µM.

With `C#CC(C)(C)NC(=O)c1ccc(C(F)(F)F)cc1NC` [Example 84, 2-(Methylamino)-N-(2-methylbut-3-yn-2-yl)-4-(trifluoromethyl)-benzamide], the 50% inhibitory concentration (IC50) was 7.5 µM.

Take `C#CC(C)(C)NC(=O)c1cc(OC(F)(F)F)ccc1NC` [Example 85, 2-(Methylamino)-N-(2-methylbut-3-yn-2-yl)-5-(trifluoromethoxy)-benzamide]: the midpoint of inhibition, the IC50, lay at 13.2 µM.

As to `C#CC(C)(C)NC(=O)c1cc(F)c(F)cc1NC1CC1` [Example 86, 2-(Cyclopropylamino)-4,5-difluoro-N-(2-methylbut-3-yn-2-yl) benzamide], the IC50 amounted to 2.2 µM.

For the compound `C#CC(C)(NC(=O)c1cc(F)c(F)cc1NCC)C(C)C` (centres unmarked) [Example 87, N-(3,4-Dimethylpent-1-yn-3-yl)-2-(ethylamino)-4,5-difluorobenzamide], the half-maximal inhibitory concentration (IC50) amounted to 0.6 µM.

Consider `C#CC(C)(C)NC(=O)c1cc(OC)c(OC)cc1NCC(C)C` [Example 88, 2-(Isobutylamino)-4,5-dimethoxy-N-(2-methylbut-3-yn-2-yl)benzamide], for which the midpoint of inhibition, the IC50, lay at 14.2 µM.

`C#CC(C)(C)NC(=O)c1ccc(C(F)(F)F)cc1NCCOC` [Example 89, 2-(2-Methoxyethylamino)-N-(2-methylbut-3-yn-2-yl)-4-(trifluoro-methyl)benzamide] gave an IC50 of 8.6 µM.

Regarding `C#CC(C)(C)NC(=O)c1ccc(F)cc1NC1CC1` [Example 90, 2-(Cyclopropylamino)-4-fluoro-N-(2-methylbut-3-yn-2-yl)benzamide], it took 4.8 µM to reach half-maximal inhibition (IC50).

Compound `C#CC(C)(C)NC(=O)c1cc(F)ccc1NC1CC1` [Example 91, 2-(Cyclopropylamino)-5-fluoro-N-(2-methylbut-3-yn-2-yl)benzamide] came in with an IC50 of 7 µM.

In turn, `C#CC(C)(C)NC(=O)c1cc(F)ccc1NC(C)C` [Example 92, 5-Fluoro-2-(isopropylamino)-N-(2-methylbut-3-yn-2-yl)benzamide] yielded a half-maximal inhibitory concentration (IC50) of 12.3 µM.

As to `C#CC(C)(C)NC(=O)c1cc(C)ccc1NC(C)C` [Example 93, 2-(Isopropylamino)-5-methyl-N-(2-methylbut-3-yn-2-yl)benzamide], the midpoint of inhibition, the IC50, lay at 11.4 µM.

The compound `C#CC(C)(C)NC(=O)c1ccc(C)cc1NCCC(F)(F)F` [Example 94, 4-Methyl-N-(2-methylbut-3-yn-2-yl)-2-(3,3,3-trifluoropropylamino)-benzamide] gave a 50% inhibitory concentration (IC50) of 1.8 µM.

With `C#CC(C)(C)NC(=O)c1cc(Cl)cc(F)c1NC(C)C` [Example 95, 5-Chloro-3-fluoro-2-(isopropylamino)-N-(2-methylbut-3-yn-2-yl)-benzamide], inhibition was half-maximal at 5.6 µM (IC50).

As for `C#CC(C)(C)NC(=O)c1cc(OC)ccc1NCCCC(F)(F)F` [Example 96, 5-Methoxy-N-(2-methylbut-3-yn-2-yl)-2-(4,4,4-trifluorobutylamino)-benzamide], the IC50 came out at 3.7 µM.

Regarding `C#CC(C)(C)NC(=O)c1cccnc1NCc1cccc(OC)c1` [Example 97, 2-(3-Methoxybenzylamino)-N-(2-methylbut-3-yn-2-yl)nicotinamide], the half-inhibitory concentration (IC50) amounted to 14 µM.

The compound `C#CC(C)(C)NC(=O)c1cccnc1NCc1cccc(F)c1` [Example 98, 2-(3-Fluorobenzylamino)-N-(2-methylbut-3-yn-2-yl)nicotinamide] showed an IC50 of 5.3 µM.

`C#CC(C)(C)NC(=O)c1cccnc1NCCCC` [Example 100, 2-(Butylamino)-N-(2-methylbut-3-yn-2-yl)nicotinamide] gave an IC50 of 6.6 µM.

The compound `C#CC(C)(C)NC(=O)c1cccnc1NC(C)(C)C` [Example 101, 2-(tert-Butylamino)-N-(2-methylbut-3-yn-2-yl)nicotinamide] gave a concentration for half-maximal inhibition (IC50) of 11.9 µM.

`C#CC(C)(CC)NC(=O)c1cc(F)ccc1NCCCC` (centres unmarked) [Example 102, 2-(Butylamino)-5-fluoro-N-(3-methylpent-1-yn-3-yl)benzamide] came in with an IC50 of 0.3 µM.

Take `C#CC(CC)(CC)NC(=O)c1cc(F)ccc1NCC` [Example 103, 2-(Ethylamino)-N-(3-ethylpent-1-yn-3-yl)-5-fluorobenzamide]: the half-maximal inhibitory concentration (IC50) is 1.8 µM.

With `C#CC(C)(C)NC(=O)c1cc(F)ccc1NCCC(F)(F)F` [Example 104, 5-Fluoro-N-(2-methylbut-3-yn-2-yl)-2-(3,3,3-trifluoropropylamino)benzamide], the IC50 was 1.7 µM.

As for `C#CC(C)(C)NC(=O)c1ccc(C(F)(F)F)nc1NCC(C)C` [Example 105], the 50% inhibitory concentration (IC50) amounted to 0.7 µM.

For `C#CC(C)(C)NC(=O)c1ccc(C(F)(F)F)nc1NC(C)C` [Example 106, 2-(Isopropylamino)-N-(2-methylbut-3-yn-2-yl)-6-(trifluoromethyl)-nicotinamide], the 50% inhibitory concentration (IC50) came to 1.3 µM.

As to `C#CC(C)(C)NC(=O)c1ccc(C(F)(F)F)nc1NCC` [Example 107, 2-(Ethylamino)-N-(2-methylbut-3-yn-2-yl)-6-(trifluoromethyl)-nicotinamide], the IC50 turned out to be 3.7 µM.

As for `C#CC(C)(C)NC(=O)c1cnc(C(F)(F)F)nc1NC(C)(C)C` [Example 108, 4-(tert-Butylamino)-N-(2-methylbut-3-yn-2-yl)-2-(trifluoromethyl)pyrimidine-5-carboxamide], the IC50 is 5 µM.

`C#CC(C)(C)NC(=O)c1cnc(C(F)(F)F)nc1NC(C)(C)CC` [Example 109, N-(2-Methylbut-3-yn-2-yl)-4-(tert-pentylamino)-2-(trifluoromethyl)-pyrimidine-5-carboxamide] had a 50% inhibitory concentration (IC50) of 5.1 µM.

For the compound `C#CC(C)(C)NC(=O)c1cnc(C(F)(F)F)nc1NC(C)C` [Example 110, 4-(Isopropylamino)-N-(2-methylbut-3-yn-2-yl)-2-(trifluoromethyl)-pyrimidine-5-carboxamide], the IC50 was found to be 12 µM.
